Article PMC12880750, “Mechanistic insights and in vivo HIV suppression by the BRD4-targeting small molecule ZL0580” (PLOS Pathogens, 2026)

Tests used:
[1] = test system: WT J-Lat cells (Clone […]); test: RT-qPCR validation of differentially expressed genes, WT J-Lat cells; assay type: cell-based, human; conditions: 5 μM, 24 h, normalized to GAPDH
Description: To validate the RNA-Seq results, RT-qPCR analysis was performed on a subset of differentially expressed genes (DEGs) (Fig 3E). Eight representative DEGs were selected based on statistical significance (adjusted p values) and their involvement in key pathways identified by GSEA, including lipid metabolism/cholesterol biosynthesis (HMGCS1, SQLE, DHCR7) and cytokine signaling (ITK and DUSP8). Relative gene expression levels were normalized to the housekeeping gene GAPDH. […] As an additional control, RT-qPCR was also performed on RNA isolated from BRD4-knockout (KO) J-Lat cells that received the same treatments. The generation and characterization of BRD4-KO J-Lat cells were described previously.
RT-qPCR was performed as previously reported.

BRD4 BD2 WT = biological target: T1, BRD4 BD2 WT (Homo sapiens, UniProt O60885); test: Thermal shift assay (TSA/DSF), BD2 WT; assay type: binding; conditions: eight increasing concentrations
T1 construct: Constructs used for mutagenesis, including wild-type BD1 (BD1 WT), BD1 with an E151A mutation (BD1 E151A), and wild-type BD2 (BD2 WT); GST (cleaved yes); made in house
Description: (§1) The melting temperatures shifts (ΔTm) were measured and the ΔTm curves as a function of compound-to-protein ratios were generated (Fig 2B–2C). […] As an additional control, the Tm of WT BD1 and E151A mutant in the absence of compound was also measured by TSA.
(§2) Plasmid construction and subsequent protein expression and purification of BRD4 proteins were performed using OverExpress C43(DE3) bacterial competent cells (Lucigen) as described in our previous studies. In brief, 12 L of bacterial cultures grown to OD600 between 0.6-0.8 were induced at 37°C for 4 h by 1 mM isopropyl […] (IPTG). Bacterial sonication supernatant in the lysis buffer (500 mM NaCl, 20 mM Tris-HCl pH 7.9 at 4°C, 20% glycerol, 1 mM EDTA, 0.2 mM DTT, and protease inhibitors) was incubated with glutathione (GSH) agarose beads (GOLDBIO, G-250–100) overnight with rotation at 4°C. The protein-bound GSH beads were washed three times with the lysis buffer and digested with human rhinovirus 3C protease (HRV-P3C; Thermal Fisher 88946) at 4°C for 4 h, according to the manufacture’s procedure, to remove GST tag from BD1/2 proteins. Untagged BRD4-BD1 and -BD2 were separated from HRV-P3C via passing through a HiTrap Q HP anion exchange chromatography column (GE Healthcare, GE17-1154-01) and eluted by a salt gradient from 100 mM to 1 M NaCl. […]

BRD4 BD1 = test system: BRD4 BD1; set-up: method as in PMID 31329163; conditions: in vitro binding affinity; cited from earlier work
BRD4 BD1 WT = biological target: T2, BRD4 BD1 WT (Homo sapiens, UniProt O60885); test: Thermal shift assay (TSA/DSF), BD1 WT; assay type: binding; conditions: eight increasing concentrations
T2 construct: Constructs used for mutagenesis, including wild-type BD1 (BD1 WT), BD1 with an E151A mutation (BD1 E151A), and wild-type BD2 (BD2 WT); GST (cleaved yes); made in house
Description: as §1, §2

BRD4 BD2 = test system: BRD4 BD2; set-up: method as in PMID 31329163; conditions: in vitro binding affinity; cited from earlier work

O=C(Nc1ccc(C(F)(F)F)cc1)Nc1ccc(S(=O)(=O)N2CCC[C@H]2C(=O)Nc2ccccc2)cc1 [ZL0580]
Expression of HMGCS1, SQLE, DHCR7, ASS1, ITK, DUSP8 relative to NC [1]: upregulated
Expression of KLF10 and WDR52 relative to NC [1]: downregulated
Effect on stability of WT BD2 (TSA) (BRD4 BD2 WT): sparing BD2
IC50 (BRD4 BD1): 0.163 µM
Effect on stability of WT BD1 (TSA) (BRD4 BD1 WT): dose-dependently increased the stability
IC50 (BRD4 BD2): 1.07 µM
